Biological target: hNET (Homo sapiens, UniProt P23975)
Assay: hNET membrane radioligand binding assay (3H-nisoxetine), Assay 1
Conditions: not given

hNET, sequence (P23975 whole entry): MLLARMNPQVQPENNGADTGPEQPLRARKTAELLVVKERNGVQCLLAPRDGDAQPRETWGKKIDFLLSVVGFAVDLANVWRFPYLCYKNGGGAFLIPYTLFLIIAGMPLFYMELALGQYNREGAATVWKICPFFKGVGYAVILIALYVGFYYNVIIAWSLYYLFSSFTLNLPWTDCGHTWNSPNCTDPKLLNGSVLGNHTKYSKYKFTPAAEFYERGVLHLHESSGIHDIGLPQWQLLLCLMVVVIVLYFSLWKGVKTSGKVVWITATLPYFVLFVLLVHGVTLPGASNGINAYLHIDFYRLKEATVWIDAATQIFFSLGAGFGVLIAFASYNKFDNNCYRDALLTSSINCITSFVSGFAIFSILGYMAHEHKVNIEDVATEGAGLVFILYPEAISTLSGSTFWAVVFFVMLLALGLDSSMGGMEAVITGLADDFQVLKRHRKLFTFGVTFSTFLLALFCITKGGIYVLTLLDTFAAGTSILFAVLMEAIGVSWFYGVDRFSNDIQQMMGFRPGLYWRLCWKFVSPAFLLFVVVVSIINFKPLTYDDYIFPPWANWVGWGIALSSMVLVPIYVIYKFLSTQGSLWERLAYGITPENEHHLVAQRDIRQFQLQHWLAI

SMILES | Ki [nM]
CC(C)C(Oc1cc(Cl)cc(Cl)c1)C1CCNC1 (centres unmarked) [Example 6-67, 3-[1(3,5-Dichlorophenoxy)-2-methylpropyl]pyrrolidine] | ≤ 100
CC(C)C(Oc1cccc(C(F)(F)F)c1)C1CCNC1 (centres unmarked) [Example 6-72, 3-[2-Methyl-1-(3-trifluoromethylphenoxy)-propyl]pyrrolidine] | ≤ 100
CC(C)C(Oc1ccc(F)cc1)C1CCNC1 (centres unmarked) [Example 6-73, 3-[1-(4-Fluorophenoxy)-2-methylpropyl]pyrrolidine] | ≤ 100
CC(C)[C@@H](Oc1ccc(Cl)cc1)[C@H]1CCNC1 [Example 6-76, (S)-3-[(R)-1-(4-Chlorophenoxy)-2-methylpropyl]pyrrolidine] | ≤ 100
CC(C)C(Oc1ccc(C(F)(F)F)cc1)C1CCNC1 (centres unmarked) [Example 6-77, 3-[2-Methyl-1-(4-trifluoromethylphenoxy)propyl]pyrrolidine] | ≤ 100
CCCC[C@@H](Oc1ccc(C(F)(F)F)cc1)[C@H]1CCNC1 [Example 8-5, (S)-3-[(R)-1-(4-Trifluoromethylphenoxy)pentyl]pyrrolidine] | ≤ 100
CCCC[C@@H](Oc1cccc(Cl)c1Cl)[C@H]1CCNC1 [Example 8-6, (S)-3-[(R)-1-(2,3-Dichlorophenoxy)pentyl]pyrrolidine] | ≤ 10
CCCC[C@@H](Oc1cccc(Cl)c1C)[C@H]1CCNC1 [Example 8-7, (S)-3-[(R)-1-(3-Chloro-2-methylphenoxy)pentyl]pyrrolidine] | ≤ 10
CCCC[C@@H](Oc1ccc(Cl)cc1Cl)[C@H]1CCNC1 [Example 8-8, (S)-3-[(R)-1-(2,4-Dichlorophenoxy)pentyl]pyrrolidine] | ≤ 10
CCCC[C@@H](Oc1ccc(C)cc1Cl)[C@H]1CCNC1 [Example 8-9, (S)-3-[(R)-1-(2-Chloro-4-methylphenoxy)pentyl]pyrrolidine] | ≤ 100
CCCC[C@@H](Oc1ccc(Cl)cc1C)[C@H]1CCNC1 [Example 8-10, (S)-3-[(R)-1-(4-Chloro-2-methylphenoxy)pentyl]pyrrolidine] | ≤ 10
CCCC[C@@H](Oc1ccc(Cl)cc1C(F)(F)F)[C@H]1CCNC1 [Example 8-11, (S)-3-[(R)-1-(4-Chloro-2-trifluoromethylphenoxy)pentyl]pyrrolidine] | ≤ 10
CC(=O)c1c(F)cccc1O[C@@H](CC(C)C)[C@H]1CCNC1 [Example 10-38, 1-[2-Fluoro-6-((S)-3-methyl-1-(S)-pyrrolidin-3-yl-butoxy)phenyl]ethanone] | ≤ 10

Continued, values first:

Ki [nM] | SMILES
≤ 10 | CC(C)CC(Oc1ccccc1F)C1CCNC1 (centres unmarked) [Example 10-2, 3-[1-(2-Fluorophenoxy)-3-methylbutyl]pyrrolidine]
≤ 10 | CC(C)CC(Oc1cccc(F)c1)C1CCNC1 (centres unmarked) [Example 10-6, 3-[1-(3-Fluorophenoxy)-3-methylbutyl]pyrrolidine]
≤ 100 | CC(C)C[C@H](Oc1ccc(Cl)cc1)[C@@H]1CCNC1 [Example 10-12, (R)-3-[(S)-1-(4-Chlorophenoxy)-3-methylbutyl]pyrrolidine]
≤ 100 | CC(C)C[C@@H](Oc1ccc(Cl)cc1)[C@@H]1CCNC1 [Example 10-14, (R)-3-[(R)-1-(4-Chlorophenoxy)-3-methylbutyl]pyrrolidine]
≤ 100 | CC(C)C[C@@H](Oc1ccc(C(F)(F)F)cc1)[C@H]1CCNC1 [Example 10-17, (S)-3-[(R)-3-Methyl-1-(4-trifluoromethylphenoxy)butyl]pyrrolidine]
≤ 100 | CC(C)C[C@H](Oc1cccc(Cl)c1C(F)(F)F)[C@@H]1CCNC1 [Example 10-37, (R)-3-[(S)-1-(3-Chloro-2-trifluoromethylphenoxy)-3-methylbutyl]pyrrolidine]
≤ 100 | CC(C)C[C@H](Oc1ccc(Cl)cc1Cl)[C@@H]1CCNC1 [Example 10-43, (R)-3-[(S)-1-(2,4-Dichlorophenoxy)-3-methylbutyl]pyrrolidine]
≤ 100 | Cc1cc(Cl)ccc1O[C@@H](CC(C)C)[C@@H]1CCNC1 [Example 10-46, (R)-3-[(S)-1-(4-Chloro-2-methylphenoxy)-3-methylbutyl]pyrrolidine]
≤ 10 | CSc1ccccc1O[C@H](C1CC1)[C@H]1CCNC1 [Example 16-4, (S)-3-[(R)cyclopropyl-(2-methylsulfanylphenoxy)methyl]pyrrolidine]

Biological target: hSERT (Homo sapiens, UniProt P31645)
Assay: hSERT membrane radioligand binding assay (3H-citalopram), Assay 1
Conditions: SERT pKi, hSERT HEK-293 membranes, 1.0 nM 3H-citalopram; values given as lower bounds

hSERT, sequence (P31645 whole entry): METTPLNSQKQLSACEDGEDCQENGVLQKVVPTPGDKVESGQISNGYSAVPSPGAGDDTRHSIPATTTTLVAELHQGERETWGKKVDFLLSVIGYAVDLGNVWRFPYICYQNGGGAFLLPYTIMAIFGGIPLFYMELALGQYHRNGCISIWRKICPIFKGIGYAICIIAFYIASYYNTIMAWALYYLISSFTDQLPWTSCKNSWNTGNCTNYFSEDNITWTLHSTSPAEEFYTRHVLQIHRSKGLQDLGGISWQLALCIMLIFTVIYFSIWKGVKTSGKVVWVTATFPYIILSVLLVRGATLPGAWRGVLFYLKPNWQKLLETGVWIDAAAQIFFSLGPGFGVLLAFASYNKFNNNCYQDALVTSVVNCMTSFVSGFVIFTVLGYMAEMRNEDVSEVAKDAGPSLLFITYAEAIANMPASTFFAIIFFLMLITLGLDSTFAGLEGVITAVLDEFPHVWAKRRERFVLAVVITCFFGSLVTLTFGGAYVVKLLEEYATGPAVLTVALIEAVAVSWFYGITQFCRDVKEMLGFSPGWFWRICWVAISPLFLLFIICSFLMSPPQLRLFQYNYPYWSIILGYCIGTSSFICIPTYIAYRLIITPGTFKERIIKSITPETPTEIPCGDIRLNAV

SMILES | Ki [nM]
CC(C)C(Oc1cc(Cl)cc(Cl)c1)C1CCNC1 (centres unmarked) [Example 6-67, 3-[1(3,5-Dichlorophenoxy)-2-methylpropyl]pyrrolidine] | ≤ 10
CC(C)C(Oc1cccc(C(F)(F)F)c1)C1CCNC1 (centres unmarked) [Example 6-72, 3-[2-Methyl-1-(3-trifluoromethylphenoxy)-propyl]pyrrolidine] | ≤ 10
CC(C)C(Oc1ccc(F)cc1)C1CCNC1 (centres unmarked) [Example 6-73, 3-[1-(4-Fluorophenoxy)-2-methylpropyl]pyrrolidine] | ≤ 100
CC(C)[C@@H](Oc1ccc(Cl)cc1)[C@H]1CCNC1 [Example 6-76, (S)-3-[(R)-1-(4-Chlorophenoxy)-2-methylpropyl]pyrrolidine] | ≤ 10
CC(C)C(Oc1ccc(C(F)(F)F)cc1)C1CCNC1 (centres unmarked) [Example 6-77, 3-[2-Methyl-1-(4-trifluoromethylphenoxy)propyl]pyrrolidine] | ≤ 10
CCCC[C@@H](Oc1ccc(C(F)(F)F)cc1)[C@H]1CCNC1 [Example 8-5, (S)-3-[(R)-1-(4-Trifluoromethylphenoxy)pentyl]pyrrolidine] | ≤ 10
CCCC[C@@H](Oc1cccc(Cl)c1Cl)[C@H]1CCNC1 [Example 8-6, (S)-3-[(R)-1-(2,3-Dichlorophenoxy)pentyl]pyrrolidine] | ≤ 10
CCCC[C@@H](Oc1cccc(Cl)c1C)[C@H]1CCNC1 [Example 8-7, (S)-3-[(R)-1-(3-Chloro-2-methylphenoxy)pentyl]pyrrolidine] | ≤ 10
CCCC[C@@H](Oc1ccc(Cl)cc1Cl)[C@H]1CCNC1 [Example 8-8, (S)-3-[(R)-1-(2,4-Dichlorophenoxy)pentyl]pyrrolidine] | ≤ 10
CCCC[C@@H](Oc1ccc(C)cc1Cl)[C@H]1CCNC1 [Example 8-9, (S)-3-[(R)-1-(2-Chloro-4-methylphenoxy)pentyl]pyrrolidine] | ≤ 10
CCCC[C@@H](Oc1ccc(Cl)cc1C)[C@H]1CCNC1 [Example 8-10, (S)-3-[(R)-1-(4-Chloro-2-methylphenoxy)pentyl]pyrrolidine] | ≤ 10
CCCC[C@@H](Oc1ccc(Cl)cc1C(F)(F)F)[C@H]1CCNC1 [Example 8-11, (S)-3-[(R)-1-(4-Chloro-2-trifluoromethylphenoxy)pentyl]pyrrolidine] | ≤ 10
CC(=O)c1c(F)cccc1O[C@@H](CC(C)C)[C@H]1CCNC1 [Example 10-38, 1-[2-Fluoro-6-((S)-3-methyl-1-(S)-pyrrolidin-3-yl-butoxy)phenyl]ethanone] | ≤ 100

Next, values leading:

Ki [nM] | SMILES
≤ 100 | CC(C)CC(Oc1ccccc1F)C1CCNC1 (centres unmarked) [Example 10-2, 3-[1-(2-Fluorophenoxy)-3-methylbutyl]pyrrolidine]
≤ 100 | CC(C)CC(Oc1cccc(F)c1)C1CCNC1 (centres unmarked) [Example 10-6, 3-[1-(3-Fluorophenoxy)-3-methylbutyl]pyrrolidine]
≤ 10 | CC(C)C[C@H](Oc1ccc(Cl)cc1)[C@@H]1CCNC1 [Example 10-12, (R)-3-[(S)-1-(4-Chlorophenoxy)-3-methylbutyl]pyrrolidine]
≤ 10 | CC(C)C[C@@H](Oc1ccc(Cl)cc1)[C@@H]1CCNC1 [Example 10-14, (R)-3-[(R)-1-(4-Chlorophenoxy)-3-methylbutyl]pyrrolidine]
≤ 10 | CC(C)C[C@@H](Oc1ccc(C(F)(F)F)cc1)[C@H]1CCNC1 [Example 10-17, (S)-3-[(R)-3-Methyl-1-(4-trifluoromethylphenoxy)butyl]pyrrolidine]
≤ 10 | CC(C)C[C@H](Oc1cccc(Cl)c1C(F)(F)F)[C@@H]1CCNC1 [Example 10-37, (R)-3-[(S)-1-(3-Chloro-2-trifluoromethylphenoxy)-3-methylbutyl]pyrrolidine]
≤ 10 | CC(C)C[C@H](Oc1ccc(Cl)cc1Cl)[C@@H]1CCNC1 [Example 10-43, (R)-3-[(S)-1-(2,4-Dichlorophenoxy)-3-methylbutyl]pyrrolidine]
≤ 10 | Cc1cc(Cl)ccc1O[C@@H](CC(C)C)[C@@H]1CCNC1 [Example 10-46, (R)-3-[(S)-1-(4-Chloro-2-methylphenoxy)-3-methylbutyl]pyrrolidine]
≤ 100 | CSc1ccccc1O[C@H](C1CC1)[C@H]1CCNC1 [Example 16-4, (S)-3-[(R)cyclopropyl-(2-methylsulfanylphenoxy)methyl]pyrrolidine]
